Results taken from patent US6399568B1, “Cyclic tetrapeptide derivatives and medicinal use thereof” (Japan Energy Corporation, priority 1997, dated 2002).
Non-standard residues stand in square brackets, D forms with d. Residues, ends and D or L forms follow the SMILES beside them. *: point of attachment. Asu = N[C@@H](CCCCCC(=O)O)C(=O)O; NHOH = ON*

What was measured:
histone deacetylase = test: Histone deacetylase enzyme inhibiting activity, synthetic peptide substrate; assay type: biochemical, mouse; conditions: enzyme from B16/BL6 cells; [3H]acetylated histone H4 peptide; 37° C. 3 hours
In short: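 Crude HDAC was partially purified from B16/BL6 cell nuclei by ammonium sulfate precipitation and gel filtration. Enzyme was incubated with [^3H]acetylated histone H4 N-terminal peptide and compound at 37° C. for 3 h. Released [^3H]acetate was ethyl acetate-extracted and counted, giving IC50 versus the no-compound control.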

B16/BL6 cells = test: MHC class-I molecule expression promoting activity; assay type: cell-based, mouse; conditions: mean of a plurality of assays; 72 hours
L1210 = test: In vivo anti-cancer activity in mouse (ascites tumor system); conditions: for Median Survival days (T/C %): L1210 ascites, CDF1 mouse
Method: (§1) With respect to an ascites tumor system, in vivo anti-cancer activity of the cyclic tetrapeptide compounds according to the present invention was evaluated using cancer-carrying mouse. The cancer cells used were L1210, B16, Colon26and MH134. These cancer cells were cultured in a conventional manner and suspended in PBS, and 10^5 cells of L1210, or 10^6 cells of B16, Colon26 or MH134 were intraperitoneally transplanted into each mouse (100 μl/mouse). The mouse used was CDF1, BDF1, CDF1 or C3H/HeN (male, 7 weeks in age) for L1210, B16, Colon 26or MH134, respectively. Drug administration was started from the day next to the transplantation of cancer cells. For L1210, 0.5% carboxymethyl cellulose Na suspension and for other cancer cells, PBS solution (actually, as suspension neutralized with NaOH) were continuously administered everyday (100 μl/mouse). The period of administration was 4 days for L1210, 9 days for B16 and MH134, and 8 days for Colon26.
(§2) After the administration period passed, the mice administered were bred and median survival days were calculated on the basis of the number of days from the transplantation of cancer cells to death. The percent ratio (T/C%) between the median survival days (C) for a control group to which an equal amount of a drug-free solution was administered and the median survival days (T) of the treated group administered with the drug was determined.

B16 = test: as above; conditions: for Median Survival days (T/C %): B16 ascites, BDF1 mouse
Method: as §1, §2

MH134 = test: as above; conditions: for Median Survival days (T/C %): MH134 ascites, C3H/HeN mouse
Method: as §1, §2

Colon26 = test: as above; conditions: for Median Survival days (T/C %): Colon26 ascites, CDF1 mouse
Method: as §1, §2

[1] = system: colon cancer Colon26 cell line; test: Cell proliferation inhibition (72 hours); assay type: cell-based, mouse; conditions: read-out: 50% proliferation inhibiting concentration Colon 26 (nM) mean
leukemia L1210 cell line = test: Cell proliferation inhibition (72 hours); assay type: cell-based, mouse; conditions: read-out: 50% proliferation inhibiting concentration L1210 (nM) mean
[2] = 0.015 mg/mouse everyday for 9 days
[3] = 0.05 mg/mouse everyday for 9 days
[4] = 0.15 mg/mouse everyday for 9 days

For `CC[C@H](C)[C@@H]1NC(=O)[C@@H](Cc2ccc(OC)cc2)NC(=O)[C@H](CCCCCC(=O)NO)NC(=O)[C@H]2CCCN2C1=O` [HDA-31, cyclo(-L-Asu(NHOH)-D-Tyr(Me)-L-Ile-D-Pro-)] (cyclo([Asu](NHOH)[dY](Me)I[dP])), the IC50 (histone deacetylase) was 3.32 nM, the “conc. for 2-fold expression (nM) mean” value (B16/BL6 cells) was 1.41 nM and the life-saving effect (L1210; L1210 ascites tumor) was “obviously exhibited a life-saving effect”. The “Median Survival days (T/C %)” value (L1210; 0.015 mg/mouse everyday for 4 days) was 113%, the “Median Survival days (T/C %)” value (L1210; 0.15 mg/mouse everyday for 4 days) was 125% and the “Median Survival days (T/C %)” value (L1210; 1.5 mg/mouse everyday for 4 days) was 37.5%. For the same compound, the life-saving effect (B16; B16 ascites tumor) was “obviously exhibited a life-saving effect”, the “Median Survival days (T/C %)” value (B16; [2]) was 117% and the “Median Survival days (T/C %)” value (B16; [3]) was 119%. For the same compound, the “Median Survival days (T/C %)” value (B16; [4]) was 139%, the life-saving effect (MH134; MH134 ascites tumor) was “no life-saving effect was observed” and the “Median Survival days (T/C %)” value (MH134; [2]) was 95.8%. The “Median Survival days (T/C %)” value (MH134; [3]) was 85.4%, the “Median Survival days (T/C %)” value (MH134; [4]) was 91.7% and the life-saving effect (Colon26; Colon26 ascites tumor) was “no life-saving effect was observed”. For the same compound, the “Median Survival days (T/C %)” value (Colon26; 0.015 mg/mouse everyday for 8 days) was 90.9%, the “Median Survival days (T/C %)” value (Colon26; 0.05 mg/mouse everyday for 8 days) was 86.4% and the “Median Survival days (T/C %)” value (Colon26; 0.15 mg/mouse everyday for 8 days) was 63.6%. For the same compound, the IC50 [1] was 33 nM and the IC50 (leukemia L1210 cell line) was 18.8 nM.
